Measured values as given in patent US9249116B2, “Enzyme-activating compounds and compositions” (The Board of Trustees of the University of Illinois, priority 2012, dated 2016).

Tests used:
[1] = tested on: U-937 cells (human lymphoma); test: 72 Hour IC50 cell death assay (sulforhodamine B); assay type: cell-based; details: read-out: U-937 72 h IC50 (μM), Table 1, U-937 cells, 72 h
Method: After the synthesis was complete, the biological activity of the compounds was evaluated.
U-937 human lymphoma cells were plated into the wells of 96 well plate at a density of 15,000 cells per well in 99 μL of RPMI 1640 growth media with 10% FBS and 1% pen-strep. To each well was added 1 μL of compound stock solutions in DMSO at varying concentrations such that the cells were treated with concentrations between 0 μM and 100 μM compound. Each concentration was tested in quintuplicate per plate. In each plate 5 wells received 20 μM doxorubicin as a positive death control and 5 wells received 1 μL of DMSO as a negative control.
After the 72 hour incubation period, the plates were analyzed using a Sulforhodamine B assay (Vichai and Kirtikara, Nat Protoc 2006, 1, 1112-1116). Specifically, to each well of the plate 25 μL of a 50% (w/v) solution of trichloroacetic acid in H2O was added and the plates were incubated for 4 hours at 4° C. The plates were then washed gently with water five times. The plates were allowed to air dry after which 100 μL of a 0.057% (w/v) Sulforhodamine B in a 1% (v/v) acetic acid solution was added to each well for 30 minutes at room temperature. The plates were gently washed 5 times with 1% (v/v) acetic acid and air dried. 200 μL of 10 mM Tris base (pH 10.4) was added to each well and the plates were placed on an orbital shaker for thirty minutes. The level of SRB was quantified fluorometrically at excitation and emission wavelengths 488 and 585 nm, respectively, on a Molecular Devices plate reader and the percent cell death calculated and normalized to the positive control (100% cell death) and the negative control (0% cell death). The percent cell death was averaged for each compound concentration and plotted as a function of compound concentration. The data were fit to a logistical dose response curve using Table curve 2D and the IC50 value was calculated. The experiment was repeated three times and the average of the calculated IC50 values was reported. The standard error of the mean (SEM) was determined and reported for the triplicate experiments.

[2] = Liver microsome stability assay; assay type: in vitro ADME; details: rat liver microsomes, 10 μM, LC/MS
Method: FIG. 4. Liver Microsome Stability Assay. Compounds (10 μM) incubated with liver microsomes for 3 h and quenched with MeCN containing internal standard, analyzed by LC/MS (280 nm). Next, the metabolic stability of the compounds was evaluated in rat liver microsomes. The compounds were evaluated for 3 hours at 10 μM, and the metabolites were observed by LC/MS.

mice = test: Assessment of toxicity in vivo; details: mice; scale 0 to 3, or time of death
From the text: The level of toxicity was rated on a scale of 0 (no observable adverse effect) to 3 (severe toxicity, almost fatal).

Compound | IC50 [1] [µM] | RLM 3 h % Stability [2] [%] | Mouse Toxicity (mice)
O=C(CN1CCN(Cc2ccc(C(F)(F)F)cc2)CC1)N/N=C/c1cc(F)ccc1O [Compound 26, N′-(5-fluoro-2-hydroxybenzylidene)-2-(4-(4-(trifluoromethyl)benzyl)piperazin-1-yl)acetohydrazide] | 4.7 ± 0.3 | 30 ± 5 | 3
C=CCc1cccc(/C=N/NC(=O)CN2CCN(Cc3ccc(C#N)cc3)CC2)c1O [Compound 4, N′-(3-allyl-2-hydroxybenzylidene)-2-(4-(4-cyanobenzyl)piperazin-1-yl)acetohydrazide] | 13.7 ± 0.9 | 48 ± 2 | 1
C=CCc1cccc(/C=N/NC(=O)CN2CCN(C(=O)c3ccc(F)cc3)CC2)c1O [Compound 7, N′-(3-allyl-2-hydroxybenzylidene)-2-(4-(4-fluorobenzoyl)piperazin-1-yl)acetohydrazide] | 10.2 ± 1.7 | 86 ± 2 | 2
CCCc1cc(F)cc(/C=N/NC(=O)CN2CCN(C(=O)c3ccccc3)CC2)c1O [Compound 39, 2-(4-benzoylpiperazin-1-yl)-N′-(5-fluoro-2-hydroxy-3-propylbenzylidene)acetohydrazide] | 12.3 ± 1 | 86 ± 5 | 2
C=CCc1cccc(/C=N/NC(=O)CN2CCN(C(=O)c3ccccc3)CC2)c1O [Compound 3, N′-(3-allyl-2-hydroxybenzylidene)-2-(4-benzoylpiperazin-1-yl)acetohydrazide] | 12.1 ± 1.3 | 89 ± 4 | 3
C=CCc1cccc(/C=N/NC(=O)CN2CCN(Cc3ccc(F)cc3)CC2)c1O [Compound 6, N′-(3-allyl-2-hydroxybenzylidene)-2-(4-(4-fluorobenzyl)piperazin-1-yl)acetohydrazide] | 11.1 ± 2.1 | 31 ± 1 | 3
CCCc1cc(F)cc(/C=N/NC(=O)CN2CCN(Cc3ccccc3)CC2)c1O [Compound 37, 2-(4-benzylpiperazin-1-yl)-N′-(5-fluoro-2-hydroxy-3-propylbenzylidene)acetohydrazide] | 8.9 ± 1.2 | 49 ± 6 | death <24 h (the mice died either within 24 hours of treatment)
C=CCc1cc(F)cc(/C=N/NC(=O)CN2CCN(C(=O)c3ccc(F)cc3)CC2)c1O [Compound 34, N′-(3-allyl-5-fluoro-2-hydroxybenzylidene)-2-(4-(4-fluorobenzoyl)piperazin-1-yl)acetohydrazide] | 8.5 ± 1.4 | 92 ± 3 | 3
O=C(CN1CCN(Cc2ccc(F)cc2)CC1)N/N=C/c1cc(F)ccc1O [Compound 24, N′-(5-fluoro-2-hydroxybenzylidene)-2-(4-(4-fluorobenzyl)piperazin-1-yl)acetohydrazide] | 11.7 ± 1.4 | 62 ± 2 | 3
N#Cc1ccc(CN2CCN(CC(=O)N/N=C/c3cc(F)ccc3O)CC2)cc1 [Compound 22, 2-(4-(4-cyanobenzyl)piperazin-1-yl)-N′-(5-fluoro-2-hydroxybenzylidene)acetohydrazide] | 13.5 ± 1 | 79 ± 4 | death <24 h (the mice died either within 24 hours of treatment)
O=C(CN1CCN(C(=O)c2ccc(C(F)(F)F)cc2)CC1)N/N=C/c1cc(F)ccc1O [Compound 27, N′-(5-fluoro-2-hydroxybenzylidene)-2-(4-(4-(trifluoromethyl)benzoyl)piperazin-1-yl)acetohydrazide] | 8.7 ± 0.5 | 87 ± 3 | 2
NS(=O)(=O)c1ccc(CN2CCN(CC(=O)N/N=C/c3cc(F)ccc3O)CC2)cc1 [Compound 20, 4-((4-(2-(2-(5-fluoro-2-hydroxybenzylidene)hydrazinyl)-2-oxoethyl)piperazin-1-yl)methyl)benzenesulfonamide] | 19.6 ± 3.8 | 85 ± 6 | death >72 h (greater than 72 hours post-treatment)
C=CCc1cc(F)cc(/C=N/NC(=O)CN2CCN(C(=O)c3ccccc3)CC2)c1O [Compound 30, N′-(3-allyl-5-fluoro-2-hydroxybenzylidene)-2-(4-benzoylpiperazin-1-yl)acetohydrazide] | 8.6 ± 2 | 93 ± 7 | 2
CCCc1cc(F)cc(/C=N/NC(=O)CN2CCN(C(=O)c3ccc(F)cc3)CC2)c1O [Compound 43, N′-(5-fluoro-2-hydroxy-3-propylbenzylidene)-2-(4-(4-fluorobenzoyl)piperazin-1-yl)acetohydrazide] | 7.5 ± 1.4 | 67 ± 3 | 3
C=CCc1cccc(/C=N/NC(=O)CN2CCN(C(=O)c3ccc(C#N)cc3)CC2)c1O [Compound 5, N′-(3-allyl-2-hydroxybenzylidene)-2-(4-(4-cyanobenzoyl)piperazin-1-yl)acetohydrazide] | 13.1 ± 3.7 | 90 ± 4 | death >72 h (greater than 72 hours post-treatment)
CCCc1cccc(/C=N/NC(=O)CN2CCN(Cc3ccccc3)CC2)c1O [Compound 10, 2-(4-benzylpiperazin-1-yl)-N′-(2-hydroxy-3-propylbenzylidene)acetohydrazide] | 9.6 ± 2.1 | 30 ± 1 | 2
CCCc1cccc(/C=N/NC(=O)CN2CCN(Cc3ccc(F)cc3)CC2)c1O [Compound 15, 2-(4-(4-fluorobenzyl)piperazin-1-yl)-N′-(2-hydroxy-3-propylbenzylidene)acetohydrazide] | 10 ± 1.7 | 24 ± 2 | death <24 h (the mice died either within 24 hours of treatment)
